Measurements taken from patent US20250368649A1, “TETRAHYDROPYRIDOPYRIMIDINE PAN-KRAS INHIBITORS” (Mirati Therapeutics, Inc., priority 2022, published 2025).

Legend:
[1] = tested on: ASPC1 cells; test: Inhibition of KRas-mediated phosphorylation of ERK (Cisbio HTRF pERK), ASPC1 cells; type: cell-based; conditions: Homo sapiens, ASPC1, 3 h, AsPC-1 cells, 3 hr compound incubation
[2] = tested on: H727 cells; test: Inhibition of KRas-mediated phosphorylation of ERK (Cisbio HTRF pERK), H727 cells; type: cell-based; conditions: Homo sapiens, NCI-H727, 3 h, 3 hr compound incubation
[3] = molecular target: KRas G12V (Homo sapiens, UniProt P01116, G12V); test: biochemical; conditions: Binding to KRas (IC50 nM) G12V, TR-FRET displacement, KRas G12V
[4] = molecular target: KRas G12D (Homo sapiens, UniProt P01116, G12D); test: biochemical; conditions: Binding to KRas (IC50 nM) G12D, TR-FRET displacement, KRas G12D
[5] = molecular target: KRas G12R (Homo sapiens, UniProt P01116, G12R); test: biochemical; conditions: Binding to KRas (IC50 nM) G12R, TR-FRET displacement, KRas G12R
[6] = tested on: A549 cells; test: Inhibition of KRas-mediated phosphorylation of ERK (Cisbio HTRF pERK), A549 cells; type: cell-based; conditions: Homo sapiens
[7] = tested on: H358 cells; test: Inhibition of KRas-mediated phosphorylation of ERK (Cisbio HTRF pERK), H358 cells; type: cell-based; conditions: Homo sapiens

KRas G12V, sequence (P01116 1-169 isoform P01116-2 G12V): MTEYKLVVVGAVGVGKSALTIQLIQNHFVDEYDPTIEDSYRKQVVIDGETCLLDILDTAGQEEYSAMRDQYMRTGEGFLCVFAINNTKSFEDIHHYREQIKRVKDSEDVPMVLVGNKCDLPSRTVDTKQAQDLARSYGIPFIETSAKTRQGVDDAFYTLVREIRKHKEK
KRas G12R, sequence (P01116 1-169 isoform P01116-2 G12R): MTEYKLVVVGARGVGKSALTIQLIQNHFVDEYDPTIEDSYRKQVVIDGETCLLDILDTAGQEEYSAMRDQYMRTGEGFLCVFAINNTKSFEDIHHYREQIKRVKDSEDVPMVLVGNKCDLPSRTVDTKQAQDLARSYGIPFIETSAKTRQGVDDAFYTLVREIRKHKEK
KRas G12D, sequence (P01116 1-169 isoform P01116-2 G12D): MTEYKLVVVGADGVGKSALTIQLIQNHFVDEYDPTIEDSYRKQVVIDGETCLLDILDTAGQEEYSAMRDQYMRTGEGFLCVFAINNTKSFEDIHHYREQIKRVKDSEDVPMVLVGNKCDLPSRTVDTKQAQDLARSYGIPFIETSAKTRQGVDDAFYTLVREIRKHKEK

SMILES	IC50 ([1]; Cisbio pERK HTRF) [nM]	IC50 ([2]; Cisbio pERK HTRF) [nM]	IC50 [3] [nM]	IC50 [4] [nM]	IC50 [5] [nM]	IC50 [1] [nM]	IC50 [2] [nM]	IC50 ([6]; A549, 3 h, 3 hr compound incubation) [nM]	IC50 ([7]; NCI-H358, 3 h, 3 hr compound incubation) [nM]	inhibition at 0.1 µM ([6]; single point at 100 nM, 3 hrs compound incubation) [%]	inhibition at 0.1 µM ([7]; NCI-H358, single point at 100 nM, 3 hrs compound incubation) [%]
CCCCCCCCCCNC(=O)c1cc2n(n1)CCCN(c1nc(OC[C@@]34CCCN3C[C@H](F)C4)nc3c1CCN(c1cc(O)cc4ccc(F)c(CC)c14)C3)C2 [Example 267, N-decyl-5-(7-(8-ethyl-7-fluoro-3-hydroxynaphthalen-1-yl)-2-(((2R,7aS)-2-fluorohexahydro-1H-pyrrolizin-7a-yl)methoxy)-5,6,7,8-tetrahydropyrido[3,4-d]pyrimidin-4-yl)-5,6,7,8-tetrahydro-4H-pyrazolo[1,5-a][1,4]diazepine-2-carboxamide]	3620	3950	123	148	256						
CCc1c(F)ccc2cc(O)cc(N3CCc4c(nc(OC[C@@]56CCCN5C[C@H](F)C6)nc4N4CCCn5nc(N(C(C)C)S(C)(=O)=O)cc5C4)C3)c12 [Example 285, N-(5-(7-(8-ethyl-7-fluoro-3-hydroxynaphthalen-1-yl)-2-(((2R,7aS)-2-fluorohexahydro-1H-pyrrolizin-7a-yl)methoxy)-5,6,7,8-tetrahydropyrido[3,4-d]pyrimidin-4-yl)-5,6,7,8-tetrahydro-4H-pyrazolo[1,5-a][1,4]diazepin-2-yl)-N-isopropylmethanesulfonamide]	> 10000	> 10000	886	563	773						
CCc1c(F)ccc2cc(O)cc(N3CCc4c(nc(OC[C@@]56CCCN5C[C@H](F)C6)nc4N4CCNc5cc(Br)ccc5C4)C3)c12 [Example 348, 4-(4-(8-bromo-1,2,3,5-tetrahydro-4H-benzo[e][1,4]diazepin-4-yl)-2-(((2R,7aS)-2-fluorotetrahydro-1H-pyrrolizin-7a(5H)-yl)methoxy)-5,8-dihydropyrido[3,4-d]pyrimidin-7(6H)-yl)-5-ethyl-6-fluoronaphthalen-2-ol]	> 10000	> 10000	38500	83300	43000						
O=C1NCC2(CCCN(c3nc(OC[C@@]45CCCN4C[C@H](F)C5)nc4c3CCN(c3c5ccccc5cc5[nH]ncc35)C4)C2)N1 (stereo partly drawn) [Example 473, 7-(7-(1H-benzo[f]indazol-4-yl)-2-(((2R,7aS)-2-fluorohexahydro-1H-pyrrolizin-7a-yl)methoxy)-5,6,7,8-tetrahydropyrido[3,4-d]pyrimidin-4-yl)-1,3,7-triazaspiro[4.5]decan-2-one]	5120	4100								12	12
CCc1c(F)ccc2cc(O)cc(N3CCc4c(nc(N5CC(N)C5)nc4N4CCC[C@@](C)(O)C4)C3)c12 [Example 486, (R)-1-(2-(3-aminoazetidin-1-yl)-7-(8-ethyl-7-fluoro-3-hydroxynaphthalen-1-yl)-5,6,7,8-tetrahydropyrido[3,4-d]pyrimidin-4-yl)-3-methylpiperidin-3-ol]			886	755	1160						
CCc1c(F)ccc2cc(O)cc(N3CCc4c(nc(OC[C@@]56CCCN5C[C@H](F)C6)nc4N4CCCC5(CCCC5)C4)C3)c12 [Example 489, 5-ethyl-6-fluoro-4-(2-(((2R,7aS)-2-fluorohexahydro-1H-pyrrolizin-7a-yl)methoxy)-4-(7-azaspiro[4.5]decan-7-yl)-5,6-dihydropyrido[3,4-d]pyrimidin-7(8H)-yl)naphthalen-2-ol]			702	761	553						
CCc1c(F)ccc2cc(O)cc(N3CCc4c(nc(OC[C@@]56CCCN5C/C(=C\F)C6)nc4N4CCC[C@]5(C4)NC(=O)NC5=O)C3)c12 [Example 715, (R)-7-(7-(8-ethyl-7-fluoro-3-hydroxynaphthalen-1-yl)-2-(((S,Z)-2-(fluoromethylene)tetrahydro-1H-pyrrolizin-7a(5H)-yl)methoxy)-5,6,7,8-tetrahydropyrido[3,4-d]pyrimidin-4-yl)-1,3,7-triazaspiro[4.5]decane-2,4-dione]						2	4	1	1		

Now from value to compound, other results behind:

IC50 ([1]; Cisbio pERK HTRF) [nM]	IC50 ([2]; Cisbio pERK HTRF) [nM]	IC50 [3] [nM]	IC50 [4] [nM]	IC50 [5] [nM]	IC50 [1] [nM]	IC50 [2] [nM]	IC50 ([6]; A549, 3 h, 3 hr compound incubation) [nM]	IC50 ([7]; NCI-H358, 3 h, 3 hr compound incubation) [nM]	SMILES	inhibition at 0.1 µM ([6]; single point at 100 nM, 3 hrs compound incubation) [%]	inhibition at 0.1 µM ([7]; NCI-H358, single point at 100 nM, 3 hrs compound incubation) [%]
787	1760	104	133	254					CCCCCCCCCCN(C)C(=O)c1cc2n(n1)CCCN(c1nc(OC[C@@]34CCCN3C[C@H](F)C4)nc3c1CCN(c1cc(O)cc4ccc(F)c(CC)c14)C3)C2 [Example 266, N-decyl-5-(7-(8-ethyl-7-fluoro-3-hydroxynaphthalen-1-yl)-2-(((2R,7aS)-2-fluorohexahydro-1H-pyrrolizin-7a-yl)methoxy)-5,6,7,8-tetrahydropyrido[3,4-d]pyrimidin-4-yl)-N-methyl-5,6,7,8-tetrahydro-4H-pyrazolo[1,5-a][1,4]diazepine-2-carboxamide]		
> 10000	4440	6	31	11					CCc1c(F)ccc2cc(O)cc(N3CCc4c(nc(OC[C@@]56CCCN5C[C@H](F)C6)nc4N4CCOCC(P(C)(C)=O)C4)C3)c12 (stereo partly drawn) [Example 281, (4-(7-(8-ethyl-7-fluoro-3-hydroxynaphthalen-1-yl)-2-(((2R,7aS)-2-fluorotetrahydro-1H-pyrrolizin-7a(5H)-yl)methoxy)-5,6,7,8-tetrahydropyrido[3,4-d]pyrimidin-4-yl)-1,4-oxazepan-6-yl)dimethylphosphine oxide]		
2340	677	< 2	4	4					CCc1c(F)ccc2cc(O)cc(N3CCc4c(nc(OC[C@@]56CCCN5C[C@H](F)C6)nc4NCC4NC(=O)NC4=O)C3)c12 (stereo partly drawn) [Example 377, 5-(((7-(8-ethyl-7-fluoro-3-hydroxynaphthalen-1-yl)-2-(((2R,7aS)-2-fluorohexahydro-1H-pyrrolizin-7a-yl)methoxy)-5,6,7,8-tetrahydropyrido[3,4-d]pyrimidin-4-yl)amino)methyl)imidazolidine-2,4-dione]		
513	896	4	3	8					CCc1c(F)ccc2cc(O)cc(N3CCc4c(nc(OC[C@@]56CCCN5C[C@H](F)C6)nc4NCc4cc(C(=O)N(C)C)nn4C)C3)c12 [Example 399, 5-(((7-(8-ethyl-7-fluoro-3-hydroxynaphthalen-1-yl)-2-(((2R,7aS)-2-fluorohexahydro-1H-pyrrolizin-7a-yl)methoxy)-5,6,7,8-tetrahydropyrido[3,4-d]pyrimidin-4-yl)amino)methyl)-N,N,1-trimethyl-1H-pyrazole-3-carboxamide]		
1730	1410	22	59	10					CCc1c(F)ccc2cc(O)cc(N3CCc4c(nc(OC[C@@]56CCCN5C[C@H](F)C6)nc4N4CCCC5(CCNC5=O)C4)C3)c12 (stereo partly drawn) [Example 401, 7-(7-(8-ethyl-7-fluoro-3-hydroxynaphthalen-1-yl)-2-(((2R,7aS)-2-fluorohexahydro-1H-pyrrolizin-7a-yl)methoxy)-5,6,7,8-tetrahydropyrido[3,4-d]pyrimidin-4-yl)-2,7-diazaspiro[4.5]decan-1-one]		
4950	1970	42	396	26					CCc1c(F)ccc2cc(O)cc(N3CCc4c(nc(OC[C@@]56CCCN5C[C@H](F)C6)nc4N4CCCc5occc5C4)C3)c12 [Example 423, 4-(4-(7,8-dihydro-4H-furo[3,2-c]azepin-5(6H)-yl)-2-(((2R,7aS)-2-fluorohexahydro-1H-pyrrolizin-7a-yl)methoxy)-5,6-dihydropyrido[3,4-d]pyrimidin-7(8H)-yl)-5-ethyl-6-fluoronaphthalen-2-ol]		
1460	1200	< 2	3	5					O=C1NCC12CCCN(c1nc(OC[C@@]34CCCN3C[C@H](F)C4)nc3c1CCN(c1cc(O)cc4ccc(F)c(Br)c14)C3)C2 (stereo partly drawn) [Example 482, 6-(7-(8-bromo-7-fluoro-3-hydroxynaphthalen-1-yl)-2-(((2R,7aS)-2-fluorohexahydro-1H-pyrrolizin-7a-yl)methoxy)-5,6,7,8-tetrahydropyrido[3,4-d]pyrimidin-4-yl)-2,6-diazaspiro[3.5]nonan-1-one]		
		14	16	13					CCc1c(F)ccc2cc(O)cc(N3CCc4c(nc(OC[C@@]56CCCN5C[C@H](F)C6)nc4N4CCCC5(C4)NC(=O)N(C)C5=O)C3)c12 (stereo partly drawn) [Example 644, 7-(7-(8-ethyl-7-fluoro-3-hydroxynaphthalen-1-yl)-2-(((2R,7aS)-2-fluorotetrahydro-1H-pyrrolizin-7a(5H)-yl)methoxy)-5,6,7,8-tetrahydropyrido[3,4-d]pyrimidin-4-yl)-3-methyl-1,3,7-triazaspiro[4.5]decane-2,4-dione]		
